Results as given in publication doi:10.1101/2024.12.09.627564, “Cannabinoid inhibition of mechanosensitive K^+ channels” (bioRxiv, 2024).

Biological target: T1, TRAAKG165R (Homo sapiens, UniProt Q9NYG8, G139R)
T1 construct: The transcribed messages encode H. sapiens TRAAK amino acids 1–393; expressed in transfected cells; host or cells: Xenopus laevis oocytes, cRNA injection
T1 sequence (Q9NYG8 1-393 G139R): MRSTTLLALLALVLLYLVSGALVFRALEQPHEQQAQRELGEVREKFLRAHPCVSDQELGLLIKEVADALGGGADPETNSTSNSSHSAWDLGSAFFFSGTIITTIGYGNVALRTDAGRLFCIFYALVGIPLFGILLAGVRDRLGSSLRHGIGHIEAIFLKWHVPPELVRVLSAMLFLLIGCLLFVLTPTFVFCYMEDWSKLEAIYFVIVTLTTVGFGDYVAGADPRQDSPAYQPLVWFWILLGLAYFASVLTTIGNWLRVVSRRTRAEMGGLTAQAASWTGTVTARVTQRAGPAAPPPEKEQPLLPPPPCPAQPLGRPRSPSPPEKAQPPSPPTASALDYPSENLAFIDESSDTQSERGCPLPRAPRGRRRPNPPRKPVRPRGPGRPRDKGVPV
Test: Excised patch recording of TRAAK mutant G165R
Type: biochemical
Source text: For patch clamp recording from Xenopus oocytes, genes encoding full-length Homo sapiens TRAAK (UniProt Q9NYG8–2), TREK-1 (UniProt O95069), and TREK-2 (UniProt P57789) were codon optimized for eukaryotic expression, synthesized (Genewiz), and cloned into a modified pGEMHE vector using Xho1 and EcoR1 restriction sites. The transcribed messages encode H. sapiens TRAAK amino acids 1–393, TREK-1 amino acids 1–426, or TREK-2 amino acids 1–538 with an additional three amino acids (SNS) at the C terminus. TRAAK mutants were introduced by polymerase chain reaction (PCR). Linearized DNA was transcribed in vitro using T7 polymerase. […] Currents were recorded at 25 °C from inside-out patches excised from oocytes 1 to 5 d after RNA injection. […]
Patches were evaluated with voltage-step protocols to confirm TRAAK expression and minimal non-specific leak based on reversal potential. Currents were recorded using an Axopatch 200B amplifier (Molecular Devices) at a bandwidth of 1 kHz and digitized with an Digidata 1550B (Molecular Devices) at 100–500 kHz using pClamp10.7 software. […] In an effort to minimize variability associated with differences in resting membrane tension, we targeted patches with low basal curvature and low resting channel activity and ensured measured pressure difference across the patch was as close to zero as possible at rest to prevent mechanical activation of channels. […]

SMILES: C=C(C)[C@@H]1CCC(C)=C[C@H]1c1c(O)cc(CCCCC)cc1O [CBD, Cannabidiol]
- IC50: 356 ± 18 nM
